Converted amounts (≈) assume the structure as drawn.
Experiments:
Mycobacterium avium = test: Antimycobacterial activity against Mycobacterium avium assessed as microbial growth reduction; assay type: functional
Mycobacterium kansasii = test: Antimycobacterial activity against Mycobacterium kansasii assessed as microbial growth reduction; assay type: functional
[1] = test system: Mycobacterium intracellulare; test: Antimycobacterial activity against Mycobacterium intracellulare assessed as microbial growth reduction; assay type: functional
Escherichia coli = test: Antibacterial activity against Escherichia coli ATCC 25922 assessed as bacterial growth inhibition measured after 48 hrs by microdilution method; assay type: functional
[2] = biological target: T1, Phospho-N-acetylmuramoyl-pentapeptide-transferase (Escherichia coli K-12, UniProt P0A6W3); test: Inhibition of MraY in Escherichia coli K12
T1 sequence (P0A6W3 whole entry): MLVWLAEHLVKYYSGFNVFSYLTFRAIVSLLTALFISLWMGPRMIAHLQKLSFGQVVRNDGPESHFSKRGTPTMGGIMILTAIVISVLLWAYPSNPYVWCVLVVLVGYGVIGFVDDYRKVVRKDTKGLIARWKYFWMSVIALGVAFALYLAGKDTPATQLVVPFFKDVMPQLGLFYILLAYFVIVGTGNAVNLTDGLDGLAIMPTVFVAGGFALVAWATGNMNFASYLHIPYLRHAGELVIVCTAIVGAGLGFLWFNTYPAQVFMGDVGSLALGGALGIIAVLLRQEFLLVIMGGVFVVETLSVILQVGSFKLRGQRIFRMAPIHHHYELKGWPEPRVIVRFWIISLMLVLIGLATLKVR

Cryptococcus neoformans [3] = test: Antifungal activity against Cryptococcus neoformans assessed as fungal growth inhibition measured after 24 hrs by micro broth dilution method; assay type: functional
Aspergillus fumigatus [4] = test: Antifungal activity against Aspergillus fumigatus assessed as fungal growth inhibition; assay type: functional
Candida albicans [5] = test: Antifungal activity against Candida albicans assessed as fungal growth inhibition measured after 24 hrs by micro broth dilution method; assay type: functional
Staphylococcus aureus [6] = test: Antibacterial activity against methicillin-resistant Staphylococcus aureus SR3637 assessed as reduction in bacterial growth inhibition; assay type: functional
Coccidioides immitis = test: Antifungal activity against Coccidioides immitis assessed as reduction in fungal growth; assay type: functional
Cryptococcus neoformans [7] = test: Antifungal activity against Cryptococcus neoformans assessed as reduction in fungal growth; assay type: functional
Enterococcus faecalis = test: Antimicrobial activity against Enterococcus faecalis 10785 assessed as reduction in microbial growth by broth microdilution method; assay type: functional
Staphylococcus aureus [8] = test: Antimicrobial activity against methicillin-resistant Staphylococcus aureus assessed as reduction in microbial growth by broth microdilution method; assay type: functional
Pseudomonas aeruginosa [9] = test: Antibacterial activity against Pseudomonas aeruginosa assessed as bacterial growth inhibition; assay type: functional
Candida albicans [10] = test: Antifungal activity against Candida albicans assessed as inhibition of fungal growth; assay type: functional
Aspergillus fumigatus [11] = test: Antifungal activity against Aspergillus fumigatus assessed as inhibition of fungal growth; assay type: functional
[12] = test system: Mycolicibacterium smegmatis; test: Antibacterial activity against Mycobacterium smegmatis SANK75075 assessed as bacterial growth inhibition; assay type: functional
Pseudomonas aeruginosa [13] = test: Antimicrobial activity against Pseudomonas aeruginosa M35 assessed as reduction in microbial growth; assay type: functional

SMILES: CCCCCCCCCCCC(=O)O[C@@H]1[C@H](OC)[C@@H]([C@@H](O[C@@H]2OC(C(=O)N[C@H]3CCC[C@@H](C)NC3=O)=C[C@@H](O)[C@H]2O)C(N)=O)O[C@H]1n1ccc(=O)[nH]c1=O
- MIC (Mycobacterium avium): 0.063 mg/L (≈ 0.0823 µM)
- MIC (Mycobacterium kansasii): 0.063 mg/L (≈ 0.0823 µM)
- MIC [1]: 0.063 mg/L (≈ 0.0823 µM)

SMILES: CCCCCCCNC[C@@H](O[C@@H]1O[C@H](CN)[C@@H](O)[C@H]1O)[C@H]1O[C@@H](n2ccc(=O)[nH]c2=O)[C@H](O)[C@@H]1O
- MIC (Escherichia coli): 2.5 mg/L (≈ 4.97 µM)
- IC50 [2]: 0.33 µM

SMILES: Nc1ncnc2c1ncn2[C@@H]1O[C@H](CSCCC(=O)O)[C@@H](O)[C@H]1O
- MIC (Cryptococcus neoformans [3]): 0.19 µM (≈ 0.0675 µg/mL)
- MIC (Aspergillus fumigatus [4]): 0.19 µM (≈ 0.0675 µg/mL)
- MIC (Candida albicans [5]): 0.19 µM (≈ 0.0675 µg/mL)

SMILES: CCCCCCCCCCCCCC(=O)NC[C@@H]1C[C@H]2[C@@H](C(=O)N1CCCNC(=N)N)[C@H]([C@H]1O[C@@H](n3ccc(=O)[nH]c3=O)[C@H](O)[C@@H]1O)ON2CCCN
- MIC (Staphylococcus aureus [6]): 8 mg/L (≈ 10.7 µM)

SMILES: N[C@@H](Cc1ccc(O)cc1)C(=O)N[C@H](C(=O)O)[C@@H]1C[C@@H](O)[C@@H](O)[C@H](n2ccc(=O)[nH]c2=O)O1
- MIC (Coccidioides immitis): 0.25 mg/L (≈ 0.538 µM)
- MIC (Cryptococcus neoformans [7]): 0.25 mg/L (≈ 0.538 µM)

SMILES: CC(C)[C@H](O)[C@H](N)C(=O)NCCCN[C@H](C(=O)OC(C)(C)C)[C@@H](O)[C@H]1O[C@@H](n2ccc(=O)[nH]c2=O)[C@H](O[Si](C)(C)C(C)(C)C)[C@@H]1O[Si](C)(C)C(C)(C)C
- MIC (Enterococcus faecalis): 1 mg/L
- MIC (Staphylococcus aureus [8]): 1 mg/L

SMILES: CCCCCCCCCCCCCC(=O)NC[C@@H]1C[C@H]2[C@@H](C(=O)N1CCCNC(=N)N)[C@@H]([C@H]1O[C@@H](n3ccc(=O)[nH]c3=O)[C@H](O)[C@@H]1O)ON2CCCN
- MIC (Staphylococcus aureus [6]): 8 mg/L (≈ 10.7 µM)

SMILES: CCCCCCCCCNC[C@@H](O[C@@H]1O[C@H](CN)[C@@H](O)[C@H]1O)[C@H]1O[C@@H](n2ccc(=O)[nH]c2=O)[C@H](O)[C@@H]1O
- MIC (Escherichia coli): 2.5 mg/L (≈ 4.71 µM)
- IC50 [2]: 0.33 µM

SMILES: CCCCCCCCCCCCCC[C@@H](NC(=O)C(C)CCCNC(=N)N)C(=O)NC[C@@H]1CC[C@H]2[C@@H](C(=O)N1)[C@H]([C@H]1O[C@@H](n3ccc(=O)[nH]c3=O)[C@H](O)[C@@H]1O)ON2CCCN (some centres undefined)
- MIC (Staphylococcus aureus [6]): 8 mg/L (≈ 9.27 µM)

SMILES: NC(=O)c1ncn([C@@H]2O[C@H](CO)[C@@H](O)[C@H]2O)n1 [RIBAVIRIN]
- MIC (Pseudomonas aeruginosa [9]): 3 mg/L (≈ 12.3 µM)

SMILES: O=C(OC[C@H]1O[C@@H](n2ccc(=O)[nH]c2=O)[C@H](O)[C@@H]1O)c1cc(O)ccc1O
- MIC (Candida albicans [10]): 1000 mg/L (≈ 2630 µM)
- MIC (Aspergillus fumigatus [11]): 1000 mg/L (≈ 2630 µM)

SMILES: CCCCCCCCCCCCCC[C@@H](NC(=O)C(C)CCCNC(=N)N)C(=O)NC[C@@H]1C[C@H]2[C@@H](C(=O)N1)[C@H]([C@H]1O[C@@H](n3ccc(=O)[nH]c3=O)[C@H](O)[C@@H]1O)ON2CCCN (some centres undefined)
- MIC (Staphylococcus aureus [6]): 8 mg/L (≈ 9.42 µM)

SMILES: O=C(OC[C@H]1O[C@@H](n2ccc(=O)[nH]c2=O)[C@H](O)[C@@H]1O)c1ccccc1O
- MIC (Candida albicans [10]): 1000 mg/L (≈ 2740 µM)
- MIC (Aspergillus fumigatus [11]): 1000 mg/L (≈ 2740 µM)

SMILES: CCCCNC[C@@H](O[C@@H]1O[C@H](CN)[C@@H](O)[C@H]1O)[C@H]1O[C@@H](n2ccc(=O)[nH]c2=O)[C@H](O)[C@@H]1O
- MIC (Escherichia coli): 2.5 mg/L (≈ 5.43 µM)
- IC50 [2]: 0.33 µM

SMILES: CCCCCCCCCCCCCC[C@@H](NC(=O)C(C)CCCNC(=N)N)C(=O)NC[C@@H]1C[C@H]2[C@@H](C(=O)N1)[C@@H]([C@H]1O[C@@H](n3ccc(=O)[nH]c3=O)[C@H](O)[C@@H]1O)ON2CCCN (some centres undefined)
- MIC (Staphylococcus aureus [6]): 8 mg/L (≈ 9.42 µM)

SMILES: CO[C@H]1[C@@H](O)[C@H](n2ccc(=O)[nH]c2=O)O[C@@H]1[C@@H](O[C@@H]1OC(C(=O)Nc2ccccc2)=C[C@@H](O)[C@H]1O)C(N)=O
- MIC [12]: 6.25 mg/L (≈ 11.7 µM)

SMILES: CSCC[C@H](NC(=O)N[C@@H](Cc1cccc(O)c1)C(=O)O)C(=O)NC(CN(C)C(=O)C1Cc2ccc(O)cc2C(C)N1)C(=O)N/C=C1/C[C@@H](O)[C@H](n2ccc(=O)[nH]c2=O)O1 (some centres undefined)
- MIC (Pseudomonas aeruginosa [13]): 6.25 mg/L

SMILES: CSCC[C@H](NC(=O)N[C@@H](Cc1cccc(O)c1)C(=O)O)C(=O)NC(CN(C)C(=O)C1Cc2ccc(O)cc2CN1)C(=O)N/C=C1/C[C@@H](O)[C@H](n2ccc(=O)[nH]c2=O)O1 (some centres undefined)
- MIC (Pseudomonas aeruginosa [13]): 6.25 mg/L

SMILES: Nc1ccc(C(=O)OC[C@H]2O[C@@H](n3ccc(=O)[nH]c3=O)[C@H](O)[C@@H]2O)c(O)c1
- MIC (Candida albicans [10]): 1000 mg/L (≈ 2640 µM)
- MIC (Aspergillus fumigatus [11]): 1000 mg/L (≈ 2640 µM)

SMILES: Nc1cccc2c1ncn2[C@@H]1O[C@H](CSCCC(=O)O)[C@@H](O)[C@H]1O
- MIC (Cryptococcus neoformans [3]): 0.19 µM (≈ 0.0671 µg/mL)
- MIC (Aspergillus fumigatus [4]): 0.19 µM (≈ 0.0671 µg/mL)
- MIC (Candida albicans [5]): 0.19 µM (≈ 0.0671 µg/mL)

From ChEMBL document CHEMBL5257035, “Nucleoside Derived Antibiotics to Fight Microbial Drug Resistance: New Utilities for an Established Class of Drugs?” (J Med Chem, 2016)
